The text below walks through data of article PMC12345137 (mBio, 2025).

One test concerns the target S. epidermidis agr-I (Staphylococcus epidermidis, UniProt Q5HMY3). Description: cell-based. It counts as cell-based. The settings on record: for QS interaction in words (inhibition / activation), S. epidermidis agr-I: fluorescent reporter strain, peptides tested at 1000, 50, 2.5, 0.125 nM or in dose-response. Here is the method:
(§1) Peptides were evaluated for the ability to interfere with agr-mediated quorum sensing in S. aureus (AH1677, AH430, AH1747, and AH1872 for agr-I–IV, respectively) ([40]) using reporter strains expressing yellow fluorescent protein (YFP) upon agr activation. Interference with agr-mediated quorum sensing in S. epidermidis (AH3408, AH3623, and AH3409 for agr-I–III, respectively) ([45]), and S. lugdunensis (AH4031 for agr-I) ([37]) was evaluated using reporter strains expressing superfolder green fluorescent protein (sGFP) upon agr activation. Overnight cultures of the reporter strains were grown in TSB medium containing chloramphenicol (CAM, 10 μg/mL for S. aureus) or erythromycin (ERM, 10 μg/mL of S. epidermidis and S. lugdunensis) and diluted 1:100 in fresh TSB medium containing the same antibiotic. Assays were performed in sterile black 96-well plates with a clear bottom. […] DMSO stock solutions of peptides (1 mM) were diluted in TSB media and added (15 μL) in technical triplicate to the 96-well plate, followed by diluted bacterial overnight cultures (135 μL). […] Wells containing 150 μL TSB medium were used to measure background fluorescence. The 96-well plates were incubated in a humidified incubator at 37°C shaking at 1,000 rpm for 22–24 h and fluorescence (for GFP: excitation 479 nm, emission 520 nm; for YFP: excitation 500 nm, emission 541 nm; automatic gain), and OD600 values were subsequently measured using a plate reader. Background fluorescence was subtracted from all wells and further normalized to the corresponding OD600 value of the respective wells. The average fluorescence of control wells was used as a relative measure for 100% activation of the agr-circuit, and bar graphs were generated using GraphPad Prism 10.4 software. All assays were performed in at least a biological duplicate.
(§2) Overnight cultures of the reporter strains were grown in TSB medium containing chloramphenicol (CAM, 10 μg/mL for S. aureus) or erythromycin (ERM, 10 μg/mL of S. epidermidis and S. lugdunensis) and diluted 1:100 in fresh TSB medium containing the same antibiotic. Assays were performed in sterile black 96-well plates with clear bottoms. Peptide solutions (15 μL) in 1:5 serial dilutions from DMSO stock solutions (1 mM) in TSB medium were added to the 96-well plate in technical duplicate followed by diluted bacterial overnight cultures (135 μL). […] Wells containing 150 μL TSB medium were used to measure background fluorescence. The 96-well plates were incubated in a humidified incubator at 37°C shaking at 1,000 rpm for 22–24 h and fluorescence (for GFP: excitation 479 nm, emission 520 nm; for YFP: excitation 500 nm, emission 541 nm; automatic gain), and OD600 values were subsequently measured using a plate reader. Background fluorescence was subtracted from all wells and further normalized to the corresponding OD600 value of the respective wells. The average fluorescence of control wells was used as a relative measure for 100% activation of the agr-circuit. Relative agr activity was plotted to obtain IC50 values by non-linear regression with variable slope using GraphPad Prism 10.4 software. All assays were performed in biological triplicate.

In a further test the target is SA AgrC-III (Staphylococcus aureus, UniProt O33590). The settings on record: 100 nM cognate AIP, ± SEM, determined previously, ref (1), cited from earlier work.
In test [1] the test system is S. epidermidis (SE) agr-I. The following applies: fluorescence, ref (11), cited from earlier work.
In the next test the target is S. aureus agr-I (Staphylococcus aureus, UniProt O07911). In words: Fluorescence reporter assay for agr interference, screening and IC50 (AH1677, P3-YFP). It is filed as cell-based. As to the method: as §1, §2
(A reporter such as luciferase makes a cellular process visible.)

For a further test, the system named is S. aureus (SA) agr-I. The following applies: fluorescence, cited from earlier work.
The target in a further test is SA AgrC-IV (Staphylococcus aureus, UniProt Q309Z2). In words: β-Lactamase assay, reporter strain RN10829 (P2-agrA:P3-blaZ) with pagrC-IV. It is filed as cell-based. An outline of the steps:
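S. aureus RN10829 P2-agrA:P3-blaZ reporter carrying a plasmid for the matching wild-type AgrC, grown in TSB to OD600 0.35–0.40. Cells met peptides (10 μM–10 pM) plus cognate AIP at 100 nM for 1 h at 37°C, then nitrocefin (33.3 μg/mL) turnover was read at OD486 for 10 min; IC50 from linear rates.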

Where two headings read alike, the source gives them in different places. Positions of bridges follow the written chain, without caps; N, C: chain ends. Residues, ends and D or L forms follow the SMILES beside them.

Chain of S. epidermidis agr-I (Q5HMY3 entry or part of it): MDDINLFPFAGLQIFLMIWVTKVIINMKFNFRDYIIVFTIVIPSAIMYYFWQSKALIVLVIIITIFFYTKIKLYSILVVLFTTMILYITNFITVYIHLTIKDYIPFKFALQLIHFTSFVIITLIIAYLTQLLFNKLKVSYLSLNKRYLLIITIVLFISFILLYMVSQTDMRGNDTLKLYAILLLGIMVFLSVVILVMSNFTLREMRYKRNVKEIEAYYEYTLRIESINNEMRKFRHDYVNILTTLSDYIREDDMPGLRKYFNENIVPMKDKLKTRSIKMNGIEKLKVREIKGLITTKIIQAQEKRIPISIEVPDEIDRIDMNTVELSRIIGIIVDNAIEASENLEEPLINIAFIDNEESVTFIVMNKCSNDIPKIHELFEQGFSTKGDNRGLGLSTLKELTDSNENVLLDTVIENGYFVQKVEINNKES
Chain of S. aureus agr-I (O07911 entry or part of it): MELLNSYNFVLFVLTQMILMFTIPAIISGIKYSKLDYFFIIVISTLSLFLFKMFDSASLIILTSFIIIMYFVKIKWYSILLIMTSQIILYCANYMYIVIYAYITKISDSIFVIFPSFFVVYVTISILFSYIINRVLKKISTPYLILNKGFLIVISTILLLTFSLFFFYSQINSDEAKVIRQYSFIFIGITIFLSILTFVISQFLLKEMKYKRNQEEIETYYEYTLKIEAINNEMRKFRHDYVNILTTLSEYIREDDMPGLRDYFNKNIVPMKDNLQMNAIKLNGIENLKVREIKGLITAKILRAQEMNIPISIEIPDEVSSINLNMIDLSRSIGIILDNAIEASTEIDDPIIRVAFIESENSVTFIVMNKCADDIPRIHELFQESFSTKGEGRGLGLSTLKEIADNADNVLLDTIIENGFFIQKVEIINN
Chain of SA AgrC-III (O33590 entry or part of it): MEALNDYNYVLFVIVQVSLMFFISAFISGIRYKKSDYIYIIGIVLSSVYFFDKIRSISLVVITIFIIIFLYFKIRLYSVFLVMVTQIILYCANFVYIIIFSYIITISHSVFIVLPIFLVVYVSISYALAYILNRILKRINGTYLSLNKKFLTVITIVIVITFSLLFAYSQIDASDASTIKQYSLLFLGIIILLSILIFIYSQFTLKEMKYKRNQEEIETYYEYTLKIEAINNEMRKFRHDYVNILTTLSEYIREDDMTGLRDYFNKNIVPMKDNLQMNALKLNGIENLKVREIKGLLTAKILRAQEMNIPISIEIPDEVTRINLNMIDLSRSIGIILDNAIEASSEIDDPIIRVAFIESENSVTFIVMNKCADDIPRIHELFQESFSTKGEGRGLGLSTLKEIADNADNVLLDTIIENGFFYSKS
Chain of SA AgrC-IV (Q309Z2 entry or part of it): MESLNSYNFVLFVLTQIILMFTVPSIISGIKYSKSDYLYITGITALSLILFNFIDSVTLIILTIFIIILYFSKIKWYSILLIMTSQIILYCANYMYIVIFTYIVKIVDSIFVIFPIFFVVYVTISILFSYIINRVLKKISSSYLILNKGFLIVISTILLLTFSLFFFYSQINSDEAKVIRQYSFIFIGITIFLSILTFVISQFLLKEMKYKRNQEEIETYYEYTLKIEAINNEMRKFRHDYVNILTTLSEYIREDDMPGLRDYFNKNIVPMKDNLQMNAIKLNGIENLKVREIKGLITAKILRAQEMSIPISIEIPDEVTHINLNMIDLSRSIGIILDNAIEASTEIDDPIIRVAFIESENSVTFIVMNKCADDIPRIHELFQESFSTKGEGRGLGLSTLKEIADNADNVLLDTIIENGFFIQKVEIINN

As usually defined, the IC50 is the point on the concentration scale where inhibition reaches its midpoint. As to `CC[C@H](C)[C@@H]1NC(=O)[C@H](Cc2ccccc2)NC(=O)[C@H](CC(=O)O)NC(=O)[C@@H](NC(=O)[C@@H](NC(=O)[C@H](CO)NC(=O)[C@@H](N)Cc2ccc(O)cc2)[C@@H](C)O)CSC(=O)[C@H](CCSC)NC1=O` [compound 1, S. aureus AIP-I] (H-YSTCDFIM; thioester 4-C), the half-maximal inhibitory concentration (IC50) is > 1000 nM at S. epidermidis agr-I and 80 ± 11 nM at SA AgrC-III (-b = no inhibition recorded at the highest AIP concentration tested, read-out: IC50, SA AgrC-III, b-lactamase assay). Further, the “inhibition at 1000 nM, SE agr-I” value in test [1] (at 1000 nM) is reported as “no inhibition”.

As to `CC(C)C[C@@H]1NC(=O)[C@@H](NC(=O)[C@@H]2CCCN2C(=O)[C@H](CC(N)=O)NC(=O)[C@H](Cc2ccc(O)cc2)NC(=O)[C@@H](N)CCCCN)CSC(=O)[C@H](CC(C)C)NC(=O)[C@H](Cc2ccccc2)NC(=O)CNC1=O` [compound 32, S. simulans AIP-I] (H-KYNPCLGFL; thioester 5-C; N-terminus assumed), the 50% inhibitory concentration (IC50) on S. aureus agr-I is 0.34 ± 0.02 nM; on S. epidermidis agr-I it was 0.74 ± 0.01 nM; at SA AgrC-III (read-out: IC50, SA AgrC-III, b-lactamase assay, -b = no inhibition recorded at the highest AIP concentration tested), 50 ± 11 nM; with S. aureus (SA) agr-I (ref (17)), 2.2 nM.

As to `NCCCC[C@H](N)C(=O)N[C@@H](Cc1ccc(O)cc1)C(=O)N[C@@H](Cc1ccc(O)cc1)C(=O)N1CCC[C@H]1C(=O)N[C@H]1CSC(=O)[C@H](Cc2ccccc2)NC(=O)[C@H](Cc2ccc(O)cc2)NC(=O)CNC(=O)[C@H](Cc2c[nH]c3ccccc23)NC1=O` [compound 33, S. simulans AIP-II] (H-KYYPCWGYF; thioester 5-C), the IC50 on S. aureus agr-I is 0.45 nM; on S. epidermidis agr-I it was 0.31 ± 0.06 nM; on SA AgrC-IV, 273 ± 26 nM; with S. aureus (SA) agr-I (ref (17)), 1.6 nM. Moreover, the “QS interaction in words (inhibition / activation), S. aureus agr-I” value at S. aureus agr-I (fluorescent reporter strain, peptides tested at 1000, 50, 2.5, 0.125 nM or in dose-response) is “inhibited”. Further, the “QS interaction in words (inhibition / activation), S. epidermidis agr-I” value on S. epidermidis agr-I is reported as “inhibited”.

Regarding `NCCCC[C@H](N)C(=O)N[C@@H](Cc1ccc(O)cc1)C(=O)N[C@@H](CC(N)=O)C(=O)N1CCC[C@H]1C(=O)N[C@H]1CSC(=O)[C@H](Cc2ccccc2)NC(=O)[C@H](Cc2ccc(O)cc2)NC(=O)CNC(=O)[C@H](Cc2c[nH]c3ccccc23)NC1=O` [compound 34, S. simulans AIP-III] (H-KYNPCWGYF; thioester 5-C), the IC50 was 0.18 ± 0.03 nM on S. aureus agr-I, 0.14 ± 0.03 nM against S. epidermidis agr-I, 351 ± 60 nM at SA AgrC-IV and 1.7 nM in the test with S. aureus (SA) agr-I (ref (17)).

Turning to “S. aureus AIP-III D4A [compound 57, reference compound]”, the “QS interaction in words (inhibition / activation), S. epidermidis agr-I” value at S. epidermidis agr-I is recorded as “weak interference”. Also, the IC50 on SA AgrC-III (only partial inhibition observed, read-out: IC50, SA AgrC-III, b-lactamase assay, only partial inhibition observed (footnote a)) is 1.6 ± 0.2 nM; with S. aureus (SA) agr-I (ref (5)), 0.49 nM. For the same molecule, the “inhibition at 10 µM, SE agr-I” value in test [1] (at 10 µM) is ~ 25%.
